# Assays:
# Type in all cases: in vivo
# [1] = test system: myelin basic protein (MBP); test: myelin gene expression in brain samples (QuantSeq 3′ mRNA-Seq), MBP; conditions: mice receiving milk without 6′SL, fold change relative to control mice receiving milk with 6′SL; FIG. 4
# Excerpt: (§1) Adult wild-type (WT) B6.129 and heterozygous (HZ) B6.129-St6gal1^tm2Jxm breeding pairs (four males and four females and three males and four females, respectively) were purchased from a commercial breeder (The Jackson Laboratory). Upon arrival, same-sex mice were housed in same-sex groups of 2-3 in type-1 polycarbonate cages (33.0×13.0×14.0 cm) equipped with sawdust bedding, an enrichment bag (Mucedola, Settimo Milanese, Italy), metal top and ad libitum water and food pellets (Mucedola, Settimo Milanese, Italy). Mice were maintained on a reversed 12-h-light-dark cycle (light on at 7:00 PM) in an air-conditioned room (temperature 21±1C and relative humidity 60±10%). Two weeks after arrival, breeding triads (one male, two females) were formed. After two weeks of mating, male mice were removed and females were housed individually in standard type-1 cages. […]
# (§2) Total RNA is extracted using the Agencourt RNAdvance Tissue Kit (Beckman Coulter): Lysis was done in 450 μL. […] Elution volume 50 μL Quantification is performed using Quant It Ribogreen assay (Life Technologies) QC assessment is performed using Standard sensitivity RNA kit on Fragment Analyzer 96 (Agilent). […]
# (§3) Library generation starts with oligodT priming containing the Illumina-specific Read 2 linker sequence. […] The random primer contains the Illumina-specific Read 1linker sequence. […]
# [2] = test system: genes related to myelination; myelination and myelin sheath pathway; test: expression of myelination-related genes and KEGG pathways in brain samples; conditions: mice receiving milk without 6′SL
# Excerpt: Adult wild-type (WT) B6.129 and heterozygous (HZ) B6.129-St6gal1^tm2Jxm breeding pairs (four males and four females and three males and four females, respectively) were purchased from a commercial breeder (The Jackson Laboratory). Upon arrival, same-sex mice were housed in same-sex groups of 2-3 in type-1 polycarbonate cages (33.0×13.0×14.0 cm) equipped with sawdust bedding, an enrichment bag (Mucedola, Settimo Milanese, Italy), metal top and ad libitum water and food pellets (Mucedola, Settimo Milanese, Italy). Mice were maintained on a reversed 12-h-light-dark cycle (light on at 7:00 PM) in an air-conditioned room (temperature 21±1C and relative humidity 60±10%). Two weeks after arrival, breeding triads (one male, two females) were formed. After two weeks of mating, male mice were removed and females were housed individually in standard type-1 cages. Females were checked daily for delivery and the day in which they gave birth was designated as postnatal day (PND) 0. Apart from cage cleaning once a week, dams and their offspring were kept undisturbed until weaning (on PND 25). At weaning, male and female mice were separated and located in same-sex same-litter cages; additionally, male mice were marked through ear clipping and the ear tissue removed through this procedure was used for genotyping. Homozygous knock-out (KO) and WT mice were then used for the experiments.
# Fourteen wild type (WT) and 14 St6Gal1 Homozygous (hereafter KO) female mice have been mated with seven WT and seven KO male mice respectively. Out of this batch, 10 WT and 10 KO dams gave birth to a viable offspring. […]
# as §2, §3
# [3] = test system: myelin-associated glycoprotein (MAG); test: myelin gene expression in brain samples (QuantSeq 3′ mRNA-Seq), MAG; conditions: mice receiving milk without 6′SL, fold change relative to control mice receiving milk with 6′SL; FIG. 4
# Excerpt: as §1, §2, §3
smiles,measurement,setting,value
"CC(=O)N[C@H]1[C@H]([C@H](O)[C@H](O)CO)O[C@@](OC[C@H]2O[C@@H](O[C@H]3[C@H](O)[C@@H](O)C(O)O[C@@H]3CO)[C@H](O)[C@@H](O)[C@H]2O)(C(=O)O)C[C@@H]1O (stereo partly drawn) [6′SL, (6R)-5-Acetamido-3,5-dideoxy-6-[(1R,2R)-1,2,3-trihydroxypropyl]-β-L-threo-hex-2-ulopyranonosyl-(2->6)-β-D-galactopyranosyl-(1->4)-D-glucopyranose]",reduction of the expression of myelin basic protein (MBP),[1],50%
same,expression of multiple genes related to myelination,"[2]; adulthood, and hippocampus at both ages",neither observed
same,KEGG myelination and myelin sheath pathway,[2]; only in prefrontal cortex during early life,down-regulated
same,expression of multiple genes related to myelination,[2]; prefrontal cortex during early life,reduced
same,reduction of the expression of myelin-associated glycoprotein (MAG),[3],50%
